# Assay results taken from ChEMBL document CHEMBL3351574, “Antitubercular activity of quinolizidinyl/pyrrolizidinylalkyliminophenazines” (Bioorg Med Chem, 2014).
# Where a name gives a salt, the structure may show the parent alone.
# Experiments:
# [1] = Cytotoxicity against human HMEC1 cells assessed as reduction in cell viability after 72 hrs by MTT method; assay type: cell-based, HMEC-1
# in vitro [2] = conditions: human, HMEC1 cells
# Description: Selectivity index, ratio of CC50 for human HMEC1 cells to MIC for Mycobacterium tuberculosis H37Rv
# [3] = test system: Mycobacterium tuberculosis; assay: microbe, parasite or virus in culture; conditions: isolate 439/11, 168 h
# Description: Antitubercular activity against Mycobacterium tuberculosis isolate 439/11 after 7 days by REMA resazurin microtiter assay
# in vitro [4] = conditions: monkey, Vero 76 cells
# Description: Selectivity index, ratio of CC50 for african green monkey Vero 76 cells to MIC for Mycobacterium tuberculosis H37Rv
# Mycobacterium avium = assay type: functional; conditions: 168 h
# [5] = test system: Mycobacterium tuberculosis; assay: microbe, parasite or virus in culture; conditions: isolate 917/10, 168 h
# Description: Antitubercular activity against Mycobacterium tuberculosis isolate 917/10 after 7 days by REMA resazurin microtiter assay
# [6] = test system: Mycobacterium tuberculosis; assay: microbe, parasite or virus in culture; conditions: isolate 756/10, 168 h
# Description: Antitubercular activity against Mycobacterium tuberculosis isolate 756/10 after 7 days by REMA resazurin microtiter assay
# [7] = test system: Mycobacterium tuberculosis; assay: microbe, parasite or virus in culture; conditions: isolate 29/10, 168 h
# Description: Antitubercular activity against Mycobacterium tuberculosis isolate 29/10 after 7 days by REMA resazurin microtiter assay
# [8] = Cytotoxicity against human MT4 cells assessed as reduction in cell viability after 96 hrs by MTT method; assay type: cell-based
# in vitro [9] = conditions: human, MT4 cells
# Description: Selectivity index, ratio of CC50 for human MT4 cells to MIC for Mycobacterium tuberculosis H37Rv
# [10] = test system: Mycobacterium tuberculosis; assay: microbe, parasite or virus in culture; conditions: isolate 778/10, 168 h
# Description: Antitubercular activity against Mycobacterium tuberculosis isolate 778/10 after 7 days by REMA resazurin microtiter assay
# [11] = Cytotoxicity against african green monkey Vero 76 cells assessed as reduction in cell viability after 48 to 96 hrs by MTT method; assay type: cell-based; conditions: chlorocebus sabaeus
# [12] = test system: Mycobacterium tuberculosis; assay: microbe, parasite or virus in culture; conditions: H37Rv, 168 h
# Description: Antitubercular activity against Mycobacterium tuberculosis H37Rv after 7 days by REMA resazurin microtiter assay
# [13] = Lipophilicity, logD of the compound at pH 7.4; assay type: physicochemical; conditions: buffer
# [14] = test system: Mycobacterium tuberculosis; assay: Antitubercular activity against Mycobacterium tuberculosis; assay type: functional
# [15] = test system: Mycobacterium tuberculosis; assay type: functional; conditions: H37Ra, 168 h
# [16] = Half life in human; assay type: ADME, organism-based; conditions: in vivo
Compound,CC50 at 72 h [1],selectivity ratio (in vitro [2]),MIC [3],MIC (Mycobacterium avium),MIC [5],MIC [6],MIC [7],MIC [10],MIC [12],MIC [15],further results
c1ccc(Nc2cc3nc4ccccc4n(-c4ccccc4)c-3c/c2=N/CCC23CCCN2CCC3)cc1 [listing 1 of 2 here],3.2 µM,3.64,–,–,–,–,–,–,–,–,–
Clc1ccc(Nc2cc3nc4ccccc4n(-c4ccc(Cl)cc4)c-3c/c2=N/C[C@@H]2CCCN3CCCC[C@H]23)cc1,4.7 µM,5.46,0.86 µM,6.87 µM,0.86 µM,0.86 µM,0.86 µM,0.86 µM,0.86 µM,–,selectivity ratio (in vitro [4]): 79.1; CC50 at 96 h [8]: 4.5 µM; selectivity ratio (in vitro [9]): 5.23; CC50 [11]: 68 µM; logD ([13]; read-out: logD): 5.54
C(=C1c2ccccc2-c2ccccc21)[C@@H]1CCCN2CCCC[C@H]12,–,–,–,–,–,–,–,–,–,–,MIC [14]: 0.156 µg/mL
Clc1ccc(Nc2cc3nc4ccccc4n(-c4ccc(Cl)cc4)c-3c/c2=N/CC[C@@H]2CCCN3CCCC[C@H]23)cc1,2.5 µM,2.98,0.84 µM,3.35 µM,0.84 µM,0.84 µM,0.84 µM,0.84 µM,0.84 µM,–,selectivity ratio (in vitro [4]): 10.7; CC50 at 96 h [8]: 1.2 µM; selectivity ratio (in vitro [9]): 1.43; CC50 [11]: 9 µM; logD ([13]; read-out: logD): 5.52
Cc1c(N)ccc(NC[C@@H]2CCCN3CCCC[C@H]23)c1C,–,–,–,–,–,–,–,–,–,–,MIC [14]: ≤ 0.5 µg/mL
c1ccc(Nc2cc3nc4ccccc4n(-c4ccccc4)c-3c/c2=N/CCC[C@H]2CCCN3CCCC[C@H]23)cc1,5.5 µM,0.74,–,–,–,–,–,–,7.38 µM,0.92 µM,selectivity ratio (in vitro [4]): 1.3; CC50 at 96 h [8]: 5.8 µM; selectivity ratio (in vitro [9]): 0.78; CC50 [11]: 9.6 µM
Cc1ccc(NC[C@@H]2CCCN3CCCC[C@H]23)c2c(=O)c3ccccc3sc12,–,–,–,–,–,–,–,–,–,–,MIC [14]: 1.25 µg/mL
Clc1ccc(Nc2cc3nc4ccccc4n(-c4ccc(Cl)cc4)c-3c/c2=N/CCC23CCCN2CCC3)cc1,1.5 µM,< 0.06,–,–,–,–,–,–,–,–,–
CO[C@H]1/C=C/O[C@@]2(C)Oc3c(C)c(O)c4c(O)c(c(/C=N/N5CCN(C)CC5)c(O)c4c3C2=O)NC(=O)/C(C)=C\C=C\[C@H](C)[C@H](O)[C@@H](C)[C@@H](O)[C@@H](C)[C@H](OC(C)=O)[C@@H]1C [RIFAMPIN],–,–,0.08 µM,–,0.61 µM,0.3 µM,0.15 µM,0.15 µM,0.3 µM,–,–
Clc1ccc(Nc2cc3nc4ccccc4n(-c4ccc(Cl)cc4)c-3c/c2=N/CC[C@H]2CCCN3CCCC[C@H]23)cc1,2.3 µM,2.74,0.84 µM,3.35 µM,0.84 µM,0.84 µM,0.84 µM,0.84 µM,0.84 µM,–,selectivity ratio (in vitro [4]): 11.3; CC50 at 96 h [8]: 1.8 µM; selectivity ratio (in vitro [9]): 2.14; CC50 [11]: 9.5 µM
Clc1ccc(Nc2cc3nc4ccccc4n(-c4ccc(Cl)cc4)c-3c/c2=N/CCC[C@H]2CCCN3CCCC[C@H]23)cc1,3.1 µM,3.78,0.82 µM,3.28 µM,0.82 µM,0.82 µM,0.82 µM,0.82 µM,0.82 µM,–,selectivity ratio (in vitro [4]): 11; CC50 at 96 h [8]: 1.5 µM; selectivity ratio (in vitro [9]): 1.83; CC50 [11]: 9 µM
CC[C@@H](CO)NCCN[C@@H](CC)CO [ETHAMBUTOL],–,–,1.8 µM,–,14.4 µM,14.4 µM,3.61 µM,7.21 µM,14.4 µM,–,–
NNC(=O)c1ccncc1 [ISONIAZID],–,–,1.82 µM,–,1.82 µM,3.65 µM,0.91 µM,0.91 µM,1.82 µM,–,–
CC(C)/N=c1\cc2n(-c3ccc(Cl)cc3)c3ccccc3nc-2cc1Nc1ccc(Cl)cc1 [CLOFAZIMINE],18.6 µM,17.6,1.06 µM,4.23 µM,1.06 µM,1.06 µM,1.06 µM,1.06 µM,1.06 µM,–,selectivity ratio (in vitro [4]): > 94; half-life [16]: 70 days; CC50 at 96 h [8]: 6.8 µM; selectivity ratio (in vitro [9]): 6.41; CC50 [11]: > 100 µM; logD [13]: 6.36
c1ccc(Nc2cc3nc4ccccc4n(-c4ccccc4)c-3c/c2=N/C[C@@H]2CCCN3CCCC[C@H]23)cc1,–,–,–,–,–,–,–,–,15.6 µM,15.6 µM,–
OC(C[C@@H]1CCCN2CCCC[C@H]12)(c1ccccc1)c1ccc(-c2ccccc2)cc1 (stereo partly specified),–,–,–,–,–,–,–,–,–,–,MIC [14]: ≤ 1 µg/mL
CN[C@@H]1[C@H](O[C@H]2[C@H](O[C@H]3[C@H](O)[C@@H](O)[C@H](N=C(N)N)[C@@H](O)[C@@H]3N=C(N)N)O[C@@H](C)[C@]2(O)C=O)O[C@@H](CO)[C@H](O)[C@H]1O [STREPTOMYCIN SULFATE],–,–,0.17 µM,–,0.69 µM,0.69 µM,0.69 µM,0.34 µM,0.69 µM,–,–
c1ccc(Nc2cc3nc4ccccc4n(-c4ccccc4)c-3c/c2=N/CCC[C@@H]2CCCN3CCCC[C@H]23)cc1,8.3 µM,1.12,–,–,–,–,–,–,7.38 µM,7.38 µM,selectivity ratio (in vitro [4]): 4.88; CC50 at 96 h [8]: 1.6 µM; selectivity ratio (in vitro [9]): 0.22; CC50 [11]: 36 µM
c1ccc(Nc2cc3nc4ccccc4n(-c4ccccc4)c-3c/c2=N/C[C@H]2CCCN3CCCC[C@H]23)cc1,–,–,–,> 16 µg/mL,1.95 µM,–,1.95 µM,1.95 µM,7.79 µM,3.89 µM,–
Cc1ccc(Nc2cc3nc4ccccc4n(-c4ccc(C)cc4)c-3c/c2=N/C[C@@H]2CCCN3CCCC[C@H]23)cc1,2.6 µM,0.4,–,–,–,–,–,–,–,–,–
FC(F)(F)c1cccc(NC[C@@H]2CCCN3CCCC[C@H]23)c1,–,–,–,–,–,–,–,–,–,–,MIC [14]: 2.5 µg/mL
Cc1ccc(Nc2cc3nc4ccccc4n(-c4ccc(C)cc4)c-3c/c2=N/C[C@@H]2CCCN3CCCC[C@H]23)cc1.Cl,–,–,3.25 µM,26 µM,26 µM,> 16 µg/mL,0.81 µM,6.5 µM,6.5 µM,26 µM,–
c1ccc(Nc2cc3nc4ccccc4n(-c4ccccc4)c-3c/c2=N/CCC23CCCN2CCC3)cc1 [listing 2 of 2 here],–,–,0.88 µM,28.1 µM,7.04 µM,28.1 µM,0.88 µM,1.76 µM,0.88 µM,3.52 µM,–
c1ccc(Nc2cc3nc4ccccc4n(-c4ccccc4)c-3c/c2=N/CC[C@@H]2CCCN3CCCC[C@H]23)cc1,–,–,–,15.2 µM,1.89 µM,–,1.89 µM,1.89 µM,7.58 µM,3.79 µM,–
c1ccc(Nc2cc3nc4ccccc4n(-c4ccccc4)c-3c/c2=N/CC[C@H]2CCCN3CCCC[C@H]23)cc1,–,–,–,–,–,–,–,–,7.58 µM,7.58 µM,–
Clc1cccc(C(C[C@@H]2CCCN3CCCC[C@H]23)c2ccccc2)c1 (stereo partly specified),–,–,–,–,–,–,–,–,–,–,MIC [14]: ≤ 0.1 µg/mL
Cl.Clc1ccc(Nc2cc3nc4ccccc4n(-c4ccc(Cl)cc4)c-3c/c2=N/CCC23CCCN2CCC3)cc1,–,–,6.25 µM,> 16 µg/mL,> 16 µg/mL,> 16 µg/mL,0.78 µM,12.5 µM,> 16 µM,26 µM,–
